The source made the active and inactive calls. Bounds are passed on as bounds.

Assay [1] addresses T1, Endoribonuclease toxin MazF (Escherichia coli K-12, UniProt P0AE70). Nature of the assay: MazF toxin RNase activators, dose response, biochemical, fluorescence, single-stranded RNA substrate, uHTS hits (AID 588481). The class given is functional.
Assay [2] has as its target T1, Endoribonuclease toxin MazF. Nature of the assay: fluorescent RNA oligo signal without MazF, dose response, counter-screen for MazEF activator project, biochemical, fluorescence, single-stranded RNase substrate (AID 588502). The format is functional.
Assay [3] concerns the target Phospholipase D1 (Homo sapiens, UniProt Q13393). Nature of the assay: PLD1 inhibitor potency in cells, dose response (AID 602151).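 Also: cellular PLD1 assay in Calu-1 cells stimulated with PMA.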 The format is functional.
Assay [4] deals with Phospholipase D2 (Homo sapiens, UniProt O14939). Nature of the assay: PLD2 inhibitor potency in cells, dose response (AID 602147).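 Also: cellular assay in HEK293 cells overexpressing GFP-tagged PLD2.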 The class given is functional.
Sequence of Phospholipase D2 (O14939 whole entry): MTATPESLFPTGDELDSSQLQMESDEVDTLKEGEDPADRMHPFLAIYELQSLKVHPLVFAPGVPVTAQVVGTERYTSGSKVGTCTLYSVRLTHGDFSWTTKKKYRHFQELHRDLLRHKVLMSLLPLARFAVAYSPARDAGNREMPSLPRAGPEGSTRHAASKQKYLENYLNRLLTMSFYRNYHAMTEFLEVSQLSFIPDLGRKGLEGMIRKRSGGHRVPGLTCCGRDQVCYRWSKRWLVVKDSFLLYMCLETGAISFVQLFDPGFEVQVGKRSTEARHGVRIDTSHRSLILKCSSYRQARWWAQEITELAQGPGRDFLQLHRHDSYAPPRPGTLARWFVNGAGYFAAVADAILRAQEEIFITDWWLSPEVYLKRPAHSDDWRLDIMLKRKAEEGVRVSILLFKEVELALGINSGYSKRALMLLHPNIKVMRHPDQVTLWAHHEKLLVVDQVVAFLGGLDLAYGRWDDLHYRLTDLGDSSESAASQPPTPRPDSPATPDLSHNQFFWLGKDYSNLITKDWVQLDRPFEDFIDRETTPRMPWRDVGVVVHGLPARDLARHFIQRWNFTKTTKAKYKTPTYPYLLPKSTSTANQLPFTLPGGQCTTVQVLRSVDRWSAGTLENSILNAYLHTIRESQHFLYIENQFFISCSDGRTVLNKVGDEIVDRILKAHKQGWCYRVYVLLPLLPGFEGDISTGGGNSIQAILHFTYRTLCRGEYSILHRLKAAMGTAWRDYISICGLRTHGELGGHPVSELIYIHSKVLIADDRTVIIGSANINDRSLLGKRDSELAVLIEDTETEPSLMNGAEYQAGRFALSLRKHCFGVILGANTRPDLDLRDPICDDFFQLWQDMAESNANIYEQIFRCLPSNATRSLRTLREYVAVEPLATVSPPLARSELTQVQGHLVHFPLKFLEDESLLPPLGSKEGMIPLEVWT
Assay [5] deals with T2, Short transient receptor potential channel 4 (Mus musculus, UniProt Q9QUQ5).
T2 sequence (Q9QUQ5 whole entry): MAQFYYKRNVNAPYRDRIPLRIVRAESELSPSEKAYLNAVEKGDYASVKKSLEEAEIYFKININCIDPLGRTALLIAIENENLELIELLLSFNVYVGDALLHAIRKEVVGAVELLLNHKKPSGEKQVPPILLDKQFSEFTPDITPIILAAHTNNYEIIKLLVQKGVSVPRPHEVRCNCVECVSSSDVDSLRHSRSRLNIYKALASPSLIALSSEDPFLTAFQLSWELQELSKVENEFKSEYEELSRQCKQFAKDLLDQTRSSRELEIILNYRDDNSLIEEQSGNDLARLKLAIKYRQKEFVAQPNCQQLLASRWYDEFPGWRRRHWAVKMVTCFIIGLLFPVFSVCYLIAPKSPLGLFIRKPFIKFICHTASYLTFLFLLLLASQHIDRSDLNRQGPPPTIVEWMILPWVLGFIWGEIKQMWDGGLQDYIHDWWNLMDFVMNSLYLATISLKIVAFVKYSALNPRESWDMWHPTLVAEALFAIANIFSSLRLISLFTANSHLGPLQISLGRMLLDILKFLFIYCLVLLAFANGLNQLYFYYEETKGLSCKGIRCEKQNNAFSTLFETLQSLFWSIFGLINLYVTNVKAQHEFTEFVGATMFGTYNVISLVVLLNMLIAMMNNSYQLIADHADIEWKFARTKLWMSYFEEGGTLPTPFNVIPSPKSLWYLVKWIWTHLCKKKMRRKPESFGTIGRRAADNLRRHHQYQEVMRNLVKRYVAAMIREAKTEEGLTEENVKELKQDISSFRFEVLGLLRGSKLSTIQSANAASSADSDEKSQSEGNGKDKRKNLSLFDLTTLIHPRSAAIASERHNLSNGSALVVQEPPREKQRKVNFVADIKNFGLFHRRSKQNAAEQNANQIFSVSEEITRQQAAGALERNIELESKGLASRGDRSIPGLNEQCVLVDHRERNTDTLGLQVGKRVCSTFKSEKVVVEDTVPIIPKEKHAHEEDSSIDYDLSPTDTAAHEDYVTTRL
Briefly: SAR Analysis for the identification of selective inhibits of the transient receptor potential cation channel C4 (TRPC4): Automated Electrophysiology_2. [Related pubchem assays (depositor defined):AID2256]. The class given is functional.

For assay [6], the target named is T2, Short transient receptor potential channel 4. Briefly: TRPC4 inhibitor concentration-response, dose response, cell-based, HEK293 TRPC4/mu-opioid, DAMGO stimulus, Fluo-4 (AID 492994). The format is functional.
Assay [7] can be described thus: NIH-3T3 fibroblast cytotoxicity, dose response, cytotoxicity control, cell-based, fluorescence, Alamar Blue, secondary assay (AID 2327).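 Also: NIH-3T3 mouse fibroblasts cultured with fluconazole at 8 µg/mL.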 The class given is functional.
In assay [8] the test system is BJ. Briefly: cytotoxicity toward BJ-TERT fibroblasts, dose response, cell-based, RAS-independent, luminescence (AID 1933). The format is functional. As to conditions: Homo sapiens.
For assay [9], the system named is BJ. Nature of the assay: cells. The class given is functional, cell-based. As to conditions: Homo sapiens.
Assay [10] is described as follows: C. albicans growth with fluconazole, confirmation, fluorescence, retest (AID 2467). The class given is functional, cell-based.
The subject of assay [11] is BJ. Briefly: cytotoxicity toward BJ-TERT-LT-ST fibroblasts, dose response, cell-based, RAS-independent, luminescence (AID 1935).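 Also: BJ fibroblasts immortalized with TERT plus LT and ST oncogenes.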 The class given is functional. As to conditions: Homo sapiens.
Assay [12] can be described thus: cytotoxicity toward DRD oncogenic fibroblasts, dose response, cell-based, non-viral oncogenic, luminescence (AID 1934). The format is functional. As to conditions: Homo sapiens.
For assay [13], the target named is T3, Microphthalmia-associated transcription factor (Homo sapiens, UniProt O75030).
T3 sequence (O75030 whole entry): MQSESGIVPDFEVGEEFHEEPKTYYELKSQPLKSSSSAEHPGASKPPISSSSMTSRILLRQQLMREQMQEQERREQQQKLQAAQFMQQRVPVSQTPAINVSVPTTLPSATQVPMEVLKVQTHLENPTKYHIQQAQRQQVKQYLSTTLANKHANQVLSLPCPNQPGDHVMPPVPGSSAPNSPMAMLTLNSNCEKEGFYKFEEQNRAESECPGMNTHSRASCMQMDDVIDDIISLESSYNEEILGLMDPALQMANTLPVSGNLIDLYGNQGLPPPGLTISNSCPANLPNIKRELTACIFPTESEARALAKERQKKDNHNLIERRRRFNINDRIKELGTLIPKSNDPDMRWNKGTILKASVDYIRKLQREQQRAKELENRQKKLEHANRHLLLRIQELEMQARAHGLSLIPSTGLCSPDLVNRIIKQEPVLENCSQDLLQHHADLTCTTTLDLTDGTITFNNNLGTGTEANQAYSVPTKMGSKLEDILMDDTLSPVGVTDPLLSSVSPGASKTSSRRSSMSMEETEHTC
Nature of the assay: TRPM1 promoter luciferase signal decrease, dose response, MITF inhibitor project, cell-based, SK-MEL-5, cherry-picked, set 3 (AID 493073).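 Also: SK-MEL-5 melanoma cells with luciferase driven by the MITF target TRPM1 promoter.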 The class given is functional.

Assay [14] in a line: cytotoxicity in HEK-293T cells, dose response, cytotoxicity control for BCR NF-kB inhibitor project, luminescence, B-cell screen hits (AID 489021).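 Also: HEK-293T cells carrying an NF-kB luciferase reporter; cells exposed to compound for about 14 hours before viability readout.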 The format is functional, cell-based.
The test system of assay [15] is INS1. Briefly: beta cell apoptosis inhibitors, cytokine rescue, dose response, luminescence, retest (AID 449756).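 Also: cell death triggered by IL-1 beta plus TNF-alpha plus IFN-gamma mixture; protective hits raise ATP signal compared with cytokine alone wells.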 The class given is functional, cell-based. Conditions: Rattus norvegicus.
Assay [16] has as its system A-375. Briefly: A375 melanoma cell viability reduction, dose response, counter-screen for MITF modulator project, cherry-pick samples, set 2 (AID 540335). The format is functional, cell-based. Conditions: Homo sapiens.

T1 sequence (P0AE70 whole entry): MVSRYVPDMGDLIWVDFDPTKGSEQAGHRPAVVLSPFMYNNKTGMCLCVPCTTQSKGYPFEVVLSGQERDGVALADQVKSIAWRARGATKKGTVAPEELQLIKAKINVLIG
Sequence of Phospholipase D1 (Q13393 whole entry): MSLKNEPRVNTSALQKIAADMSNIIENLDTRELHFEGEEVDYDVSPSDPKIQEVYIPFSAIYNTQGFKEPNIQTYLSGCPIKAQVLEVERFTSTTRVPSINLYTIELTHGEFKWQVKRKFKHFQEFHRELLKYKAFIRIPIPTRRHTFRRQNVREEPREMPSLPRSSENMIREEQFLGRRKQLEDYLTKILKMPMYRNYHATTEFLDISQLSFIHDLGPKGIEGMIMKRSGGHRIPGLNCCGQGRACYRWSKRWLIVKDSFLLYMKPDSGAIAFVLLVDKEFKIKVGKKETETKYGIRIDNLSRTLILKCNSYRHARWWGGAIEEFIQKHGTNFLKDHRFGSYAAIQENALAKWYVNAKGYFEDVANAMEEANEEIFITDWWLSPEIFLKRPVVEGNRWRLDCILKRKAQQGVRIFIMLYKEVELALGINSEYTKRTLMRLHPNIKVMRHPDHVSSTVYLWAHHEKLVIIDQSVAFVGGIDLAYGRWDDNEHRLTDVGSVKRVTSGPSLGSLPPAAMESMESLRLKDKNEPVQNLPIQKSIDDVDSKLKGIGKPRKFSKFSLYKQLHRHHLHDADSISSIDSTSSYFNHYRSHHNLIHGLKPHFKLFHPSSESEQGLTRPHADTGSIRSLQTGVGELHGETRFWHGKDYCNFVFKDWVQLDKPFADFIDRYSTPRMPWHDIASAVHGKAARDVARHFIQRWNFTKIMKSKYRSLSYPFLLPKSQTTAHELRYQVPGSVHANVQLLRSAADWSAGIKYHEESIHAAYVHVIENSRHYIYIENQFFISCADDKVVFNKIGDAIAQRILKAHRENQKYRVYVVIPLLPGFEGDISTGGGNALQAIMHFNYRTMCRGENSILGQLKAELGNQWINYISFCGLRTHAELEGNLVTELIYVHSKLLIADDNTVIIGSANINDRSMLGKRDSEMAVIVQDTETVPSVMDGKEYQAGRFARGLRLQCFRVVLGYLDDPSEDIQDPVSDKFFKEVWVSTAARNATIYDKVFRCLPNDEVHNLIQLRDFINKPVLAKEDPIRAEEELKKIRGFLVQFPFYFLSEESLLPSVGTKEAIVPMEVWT

As to `C=CCn1c(=N)c(S(=O)(=O)c2ccc(C)c(C)c2)cc2c(=O)n3ccccc3nc21`, the EC50 was 31.9 µM (inactive) in assay [1] and 52.2 µM (inactive) in [2].
Turning to `O=C(NCCN1CCN(c2ccncc2)CC1)c1cc2cc(F)ccc2[nH]1`, the IC50 in [3] was 3.6 µM (active); in assay [4] it was 15 µM (active).
Turning to `Cc1cc(N2CCOc3ccccc32)nc2ccccc12`, the IC50 was 24.5 µM (active) in assay [5] and 12 µM (active) in assay [6].
Take `Cc1ccc(C(=O)Cn2cc(-c3ccc(C)cc3)[n+]3c2CCCCC3)cc1`: the EC50 in assay [7] is > 150 µM (inactive); in [8], 17.3 µM (active); in assay [9], > 150 µM (not active); in [10], 1.32 µM (active); in [11] it was > 150 µM (not active); in assay [12], 85.7 µM (active). Besides, the AC50 in [13] is 3.63 µM (active); in assay [15], 1.3 µM (active); in assay [16] it was 40.5 µM (active). The IC50 in assay [14] is > 80 µM (inactive).

The record behind these values is ChEMBL document CHEMBL1201862, “PubChem BioAssay data set” (2004).
